Our source for the IC50 values is US9974778B2, “Substituted pyridinones as MGAT2 inhibitors” (BRISTOL-MYERS SQUIBB COMPANY, priority 2014, dated 2018).

In the experiment the target is T1, Human MGAT-2 (Homo sapiens, UniProt Q3SYC2).
T1 construct: made in house; host or cells: Sf9 cells (membrane preparation)
The experiment in a line: MGAT LCMS Assay. It counts as biochemical. The note with it: human MGAT2 membranes expressed in Sf9 cells; 100 μM 2-oleoylglycerol, 15 μM oleoyl-coenzyme A; read-out: h-MGAT LCMS IC50. As to the method: Assay plates were run through a fully automated robotics system and shaken for 5 seconds every minute for a total 10 minutes. The reactions were then quenched with 120 μL of ice cold methanol containing 1 μg/mL 1,2-distearoyl-rac-glycerol as the internal standard. Plates were shaken for 2 minutes and spun down to remove protein precipitation. After the spin, samples were transferred to LC/MS compatible PCR plates. For LC/MS analysis, a ThermoFisher Surveyor pump, utilizing a Waters […]® C8, 50×2.1 mm column, was used for the chromatography of enzyme products. The buffer system consists of 0.1% formic acid in water with a mobile phase consisting 0.1% formic acid in methanol. […] The first 0.5 minutes of each injection was diverted to waste to eliminate the presence of Phosphate buffer in the enzymatic reaction. The column was run at 0.6 mL/min and a temperature of 65° C. Mass spectrometry analysis of the samples was performed on a ThermoFisher Quantum Triple quad utilizing APCI (+) as the mode of ionization. […] The ratio of Diolein to internal standard (Peak Area Ratio) is utilized to calculate IC50 values.

T1 sequence (Q3SYC2 whole entry): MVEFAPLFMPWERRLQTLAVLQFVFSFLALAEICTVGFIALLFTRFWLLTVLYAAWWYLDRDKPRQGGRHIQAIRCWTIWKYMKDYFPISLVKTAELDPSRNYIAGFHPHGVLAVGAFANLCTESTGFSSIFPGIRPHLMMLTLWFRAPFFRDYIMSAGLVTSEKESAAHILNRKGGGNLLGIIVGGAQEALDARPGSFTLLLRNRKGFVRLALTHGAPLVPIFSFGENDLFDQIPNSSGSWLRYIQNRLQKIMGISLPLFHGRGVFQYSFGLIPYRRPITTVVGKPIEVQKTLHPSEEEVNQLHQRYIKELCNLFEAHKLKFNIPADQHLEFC

`CCOc1ccc(NC(=O)c2c(-c3ccc(C)cc3)cc(C3CCCCC3)[nH]c2=O)cc1` [Example 28, 6-Cyclohexyl-N-(4-ethoxyphenyl)-2-oxo-4-(p-tolyl)-1,2-dihydropyridine-3-carboxamide]: the IC50 (commonly the concentration that gives 50% inhibition) amounted to 137 nM.

For the compound `CCOc1ccc(NC(=O)c2c(-c3ccc(C)cc3)cc(C3CCCC3)[nH]c2=O)cc1` [Example 29, 6-Cyclopentyl-N-(4-ethoxyphenyl)-2-oxo-4-(p-tolyl)-1,2-dihydropyridine-3-carboxamide], the IC50 came to 144 nM.

For `CCCCCc1ccc(-c2cc(-c3ccc(C)cc3)c(-c3nn[nH]n3)c(=O)[nH]2)cc1` [Example 30, 6-(4-Pentylphenyl)-3-(2H-tetrazol-5-yl)-4-(p-tolyl)pyridin-2(1H)-one], the IC50 stood at 150 nM.

Regarding `CC/C=C/c1c(-c2ccc(CCCCC)cc2)[nH]c(=O)c(C(=O)Nc2ccc(OCC)cc2)c1-c1ccc(C)cc1` [Example 31, (E)-5-(But-1-en-1-yl)-N-(4-ethoxyphenyl)-2-oxo-6-(4-pentylphenyl)-4-(p-tolyl)-1,2-dihydropyridine-3-carboxamide], the IC50 was found to be 178 nM.

As to `CCCCCc1ccc(-c2[nH]c(=O)c(C(=O)Nc3ccc(OCC)cc3)c(-c3ccc(C)cc3)c2-c2ccccc2)cc1` [Example 32, N-(4-Ethoxyphenyl)-2-oxo-6-(4-pentylphenyl)-5-phenyl-4-(p-tolyl)-1,2-dihydropyridine-3-carboxamide], the IC50 worked out at 193 nM.

Consider `CCCCCc1ccc(-c2cc(-c3ccc(C)cc3)c(C(=O)Nc3ccccc3)c(=O)[nH]2)cc1` [Example 33, 2-Oxo-6-(4-pentylphenyl)-N-phenyl-4-(p-tolyl)-1,2-dihydropyridine-3-carboxamide], for which the IC50 came out at 218 nM.

Turning to `COc1ccc(NC(=O)c2c(-c3ccc(C)cc3)cc(C3CCCCC3)[nH]c2=O)cc1` [Example 34, 6-Cyclohexyl-N-(4-methoxyphenyl)-2-oxo-4-(p-tolyl)-1,2-dihydropyridine-3-carboxamide], the IC50 is 223 nM.

As for `Cc1ccc(-c2c(Br)c(-c3ccc(OCCCC(F)(F)F)cc3)[nH]c(=O)c2-c2nn[nH]n2)cc1C` [Example 36, 5-Bromo-4-(3,4-dimethylphenyl)-3-(2H-tetrazol-5-yl)-6-(4-(4,4,4-trifluorobutoxy)phenyl)pyridin-2(1H)-one], the IC50 is 311 nM.

On to `Cc1ccc(-c2cc(C3CCCCC3)[nH]c(=O)c2C(=O)Nc2cccnc2)cc1` [Example 37, 6-Cyclohexyl-2-oxo-N-(pyridin-3-yl)-4-(p-tolyl)-1,2-dihydropyridine-3-carboxamide], for which the IC50 came to 543 nM.

With `CCOc1ccc(NC(=O)c2c(-c3ccc(C)cc3)c(F)c(C3CCCCC3)[nH]c2=O)cc1` [Example 38, 6-Cyclohexyl-N-(4-ethoxyphenyl)-5-fluoro-2-oxo-4-(p-tolyl)-1,2-dihydropyridine-3-carboxamide], the half-inhibitory concentration (IC50) worked out at 1250 nM.

Take `CCOc1ccc(NC(=O)c2c(-c3ccc(N(C)C)cc3)cc(C3(F)CCCCC3)[nH]c2=O)cc1` [Example 39, 4-(4-(Dimethylamino)phenyl)-N-(4-ethoxyphenyl)-6-(1-fluorocyclohexyl)-2-oxo-1,2-dihydropyridine-3-carboxamide]: the IC50 is 139 nM.

On to `CCCCCc1ccc(-c2c(C3CCCC3)[nH]c(=O)c(C(=O)Nc3ccc(OCC)cc3)c2-c2ccc(C)cc2)cc1` [Example 40, 6-Cyclopentyl-N-(4-ethoxyphenyl)-2-oxo-5-(4-pentylphenyl)-4-(p-tolyl)-1,2-dihydropyridine-3-carboxamide], for which the IC50 is 390 nM.

On to `CCOc1ccc(NC(=O)c2c(-c3ccc(C)cc3)cc(C3(F)CCCCC3)[nH]c2=O)cc1` [Example 41, N-(4-Ethoxyphenyl)-6-(1-fluorocyclohexyl)-2-oxo-4-(p-tolyl)-1,2-dihydropyridine-3-carboxamide], for which the IC50 came to 36 nM.

As to `CCCCCc1ccc(-c2cc(-c3ccc(CC)o3)c(C(=O)Nc3ccc(OCC)cc3)c(=O)[nH]2)cc1` [Example 42, N-(4-Ethoxyphenyl)-4-(5-ethylfuran-2-yl)-2-oxo-6-(4-pentylphenyl)-1,2-dihydropyridine-3-carboxamide], the IC50 came out at 395 nM.

With `CC(C)(C)c1ccc(-c2cc(-c3ccc(OCCCC(F)(F)F)cc3)[nH]c(=O)c2C(=O)Nc2ccccc2)cc1` [Example 44, 4-(4-(tert-Butyl)phenyl)-2-oxo-N-phenyl-6-(4-(4,4,4-trifluorobutoxy)phenyl)-1,2-dihydropyridine-3-carboxamide], the IC50 was 6 nM.

Turning to `CCOc1ccc(NC(=O)c2c(-c3ccc(C(C)(C)C)cc3)cc(-c3ccc(OCCCC(F)(F)F)cc3)[nH]c2=O)cc1` [Example 45, 4-(4-(tert-Butyl)phenyl)-N-(4-ethoxyphenyl)-2-oxo-6-(4-(4,4,4-trifluorobutoxy)phenyl)-1,2-dihydropyridine-3-carboxamide], the half-inhibitory concentration (IC50) came out at 9 nM.

`O=c1[nH]c(-c2ccc(OCCCCC(F)(F)F)cc2)cc(-c2ccc(C3CC3)s2)c1-c1nnn[nH]1` [Example 46]: the IC50 was 27 nM.

Consider `O=c1[nH]c(-c2ccc(OCCCC(F)(F)F)cc2)cc(-c2cc3ccccc3s2)c1-c1nnn[nH]1` [Example 47, 4-(Benzo[b]thiophen-2-yl)-3-(1H-tetrazol-5-yl)-6-(4-(4,4,4-trifluorobutoxy)phenyl)pyridin-2(1H)-one], for which the IC50 stood at 29 nM.

As to `CC(C)(C)c1ccc(-c2cc(-c3ccc(OCCCC(F)(F)F)cc3)[nH]c(=O)c2-c2nnn[nH]2)cc1` [Example 48, 4-(4-(tert-Butyl)phenyl)-3-(1H-tetrazol-5-yl)-6-(4-(4,4,4-trifluorobutoxy)phenyl)pyridin-2(1H)-one], the IC50 came out at 40 nM.

For `Cc1ccc(-c2cc(-c3ccc(OCCCC(F)(F)F)cc3)[nH]c(=O)c2-c2nnn[nH]2)cc1C` [Example 50, 4-(3,4-Dimethylphenyl)-3-(1H-tetrazol-5-yl)-6-(4-(4,4,4-trifluorobutoxy)phenyl)pyridin-2(1H)-one], the half-inhibitory concentration (IC50) was determined as 109 nM.

Take `COc1ccc(NC(=O)c2c(-c3ccc(C(C)(C)C)cc3)cc(-c3ccc(OCCCC(F)(F)F)cc3)[nH]c2=O)cc1` [Example 51, 4-(4-(tert-Butyl)phenyl)-N-(4-methoxyphenyl)-2-oxo-6-(4-(4,4,4-trifluorobutoxy)phenyl)-1,2-dihydropyridine-3-carboxamide]: the half-inhibitory concentration (IC50) worked out at 417 nM.

As to `C/C=C/c1c(-c2ccc(CCCCC)cc2)[nH]c(=O)c(C(=O)Nc2ccc(OCC)cc2)c1-c1ccc(C)cc1` [Example 52], the IC50 is 3 nM.

For the compound `CCOc1ccc(NC(=O)c2c(-c3ccc(C)cc3)cc(-c3cnn(CCCCCC(F)(F)F)c3)[nH]c2=O)cc1` [Example 53, N-(4-Ethoxyphenyl)-2-oxo-4-(p-tolyl)-6-(1-(6,6,6-trifluorohexyl)-1H-pyrazol-4-yl)-1,2-dihydropyridine-3-carboxamide], the IC50 was found to be 267 nM.

Take `CCOc1ccc(NC(=O)c2c(-c3ccc(C)cc3)cc(C3(F)CCCC3)[nH]c2=O)cc1` [Example 54, N-(4-Ethoxyphenyl)-6-(1-fluorocyclopentyl)-2-oxo-4-(p-tolyl)-1,2-dihydropyridinc-3-carboxamide]: the IC50 was 127 nM.

As for `Cc1ccc(-c2cc(-c3ccc(OCCCCCC(F)(F)F)cc3)[nH]c(=O)c2C(=O)NS(=O)(=O)N(C)C)cc1` [Example 56, N-(N,N-Dimethylsulfamoyl)-2-oxo-4-(p-tolyl)-6-(4-((6,6,6-trifluorohexyl)oxy)phenyl)-1,2-dihydropyridine-3-carboxamide], the IC50 was found to be 29 nM.

`CC(C)n1ccc(-c2cc(-c3ccc(OCCCCCC(F)(F)F)cc3)[nH]c(=O)c2-c2nnn[nH]2)c1` [Example 57, 4-(1-Isopropyl-1H-pyrrol-3-yl)-3-(1H-tetrazol-5-yl)-6-(4-((6,6,6-trifluorohexyl)oxy)phenyl)pyridin-2(1H)-one]: the IC50 is 30 nM.

Take `Cc1ccc(-c2cc(-c3ccc(OCCCC(F)(F)F)c(C)c3)[nH]c(=O)c2-c2nnn[nH]2)cc1` [Example 58, 6-(3-Methyl-4-(4,4,4-trifluorobutoxy)phenyl)-3-(1H-tetrazol-5-yl)-4-(p-tolyl)pyridin-2(1H)-one]: the concentration for half-maximal inhibition (IC50) is 575 nM.

Consider `CN(C)c1ccc(-c2cc(-c3ccc(OCCCCCC(F)(F)F)cc3)[nH]c(=O)c2-c2nnn[nH]2)cc1` [Example 59, 4-(4-(Dimethylamino)phenyl)-3-(1H-tetrazol-5-yl)-6-(4-((6,6,6-trifluorohexyl)oxy)phenyl)pyridin-2(1H)-one], for which the IC50 was 6 nM.

Regarding `Cc1ccc(-c2cc(-c3ccc(CCC4CC4)cc3)[nH]c(=O)c2-c2nnn[nH]2)cc1` [Example 61, 6-(4-(2-Cyclopropylethyl)phenyl)-3-(1H-tetrazol-5-yl)-4-(p-tolyl)pyridin-2(1H)-one], the IC50 worked out at 139 nM.

Regarding `Cc1ccc(-c2cc(-c3ncc(CCCCCCC(F)(F)F)s3)[nH]c(=O)c2-c2nnn[nH]2)cc1` [Example 62, 3-(1H-Tetrazol-5-yl)-4-(p-tolyl)-6-(5-(7,7,7-trifluoroheptyl)thiazol-2-yl)pyridin-2(1H)-one], the IC50 is 188 nM.

Regarding `O=C(NS(=O)(=O)C1CC1)c1c(-c2ccc(CC3CC3)cc2)cc(-c2ccc(OCCCCCC(F)(F)F)cc2)[nH]c1=O` [Example 63, 4-(4-(Cyclopropylmethyl)phenyl)-N-(cyclopropylsulfonyl)-2-oxo-6-(4-((6,6,6-trifluorohexyl)oxy)phenyl)-1,2-dihydropyridine-3-carboxamide], the IC50 stood at 17 nM.

`COc1ccc(-c2cc(-c3ccc(OCCCCCC(F)(F)F)cc3)[nH]c(=O)c2C(=O)NS(=O)(=O)C2CC2)cc1` [Example 65]: the IC50 turned out to be 172 nM.
